Activity calls are given as the source filed them. The rule behind the calls is not given here.
Experiments:
Platelet [1] = assay: Inhibition of ADP-induced Akt activation in C57BL/6J mouse platelet assessed as reduction of AKT phosphorylation at Ser473 by western blot analysis; type: cell-based
[2] = Acute toxicity in po dosed Kunming mouse assessed as lethal dose measured after 14 days; type: organism-based; settings: in vivo, time 14 day
[3] = Metabolic stability in Sprague-Dawley rat liver microsomes assessed as liver intrinsic clearance at 1 uM incubated upto 60 min in presence of NADPH by LC-MS/MS analysis; type: ADME, Microsome; settings: 1 h
Platelet [4] = assay: Antiplatelet activity against ADP-induced C57BL/6J mouse platelet aggregation assessed as reduction in integrin alphaIIbbeta3 surface levels by measuring increase median fluorescence intensities at 10 uM incubated for 10 min by flow cytometry analysis; type: functional, cell-based
[5] = Acute toxicity in Kunming mouse assessed as effect on glutamic oxalacetic transaminase at 250 to 1000 mg/kg, po measured after 14 days; type: organism-based; settings: in vivo, 336 h, dose 250-1000 mg/kg, time 14 day
Platelet [6] = assay: Inhibition of ADP-induced Akt activation in C57BL/6J mouse platelet assessed as reduction of AKT phosphorylation at Ser473 at 0.5 to 20 uM by western blot analysis; type: cell-based; settings: dose 0.5-20 µM, DDE = dose-dependent effect
Platelet [7] = assay: Antiplatelet activity against ADP-induced C57BL/6J mouse platelet aggregation assessed as reduction in P-selectin surface levels by measuring increase median fluorescence intensities at 10 uM incubated for 10 min by flow cytometry analysis; type: functional, cell-based
[8] = Metabolic stability in human liver microsomes assessed as half life at 1 uM incubated upto 60 min in presence of NADPH by LC-MS/MS analysis; type: ADME, Microsome
[9] = Metabolic stability in CD-1 mouse liver microsomes assessed as compound remaining at 1 uM measured after 60 mins in presence of NADPH by LC-MS/MS analysis; type: ADME, Microsome; settings: read-out: Stability
[10] = Antiplatelet activity against ADP-induced C57BL/6J mouse platelet aggregation assessed as maximal aggregration rate at 10 uM preincubated for 10 mins followed by ADP addition relative to control; type: functional
[11] = Metabolic stability in CD-1 mouse liver microsomes assessed as liver intrinsic clearance at 1 uM incubated upto 60 min in presence of NADPH by LC-MS/MS analysis; type: ADME, Microsome; settings: 1 h
[12] = Metabolic stability in human liver microsomes assessed as liver intrinsic clearance at 1 uM incubated upto 60 min in presence of NADPH by LC-MS/MS analysis; type: ADME, Microsome; settings: 1 h
[13] = Metabolic stability in Sprague-Dawley rat liver microsomes assessed as microsomal intrinsic clearance at 1 uM incubated upto 60 min in presence of NADPH by LC-MS/MS analysis; type: ADME, Microsome; settings: read-out: CLH
[14] = Metabolic stability in human liver microsomes assessed as compound remaining at 1 uM measured after 60 mins in presence of NADPH by LC-MS/MS analysis; type: ADME, Microsome; settings: read-out: Stability
[15] = Metabolic stability in CD-1 mouse liver microsomes assessed as half life at 1 uM incubated upto 60 min in presence of NADPH by LC-MS/MS analysis; type: ADME, Microsome
Platelet [16] = assay: Antiplatelet activity against ADP-induced C57BL/6J mouse platelet aggregation assessed as increase in VASP phosphorylation level at 0.5 to 20 uM by western blotting analysis; type: functional, cell-based; settings: dose 0.5-20 µM
[17] = Cytotoxicity against human HUVEC cells assessed as cell vaibility at 100 uM by MTS assay; type: toxicity, cell-based; settings: read-out: Activity
[18] = Antiplatelet activity against ADP-induced C57BL/6J mouse platelet aggregation assessed as inhibition of platelet aggregation at 10 uM preincubated for 10 mins followed by ADP addition relative to control; type: functional; design: scale not given: the % may be the effect or the level left
Platelet [19] = assay: Inhibition of ADP-induced Akt activation in C57BL/6J mouse platelets assessed as reduction in phosphorylation Akt level at Ser473 at 100 mg/kg, po measured after 2 weeks by western blot analysis; type: organism-based
Mus musculus [20] = assay: Antithrombotic activity in BALB/c mouse model of carrageenan-induced thrombus formation assessed as inhibition of thrombosis rate in tail at 100 mg/kg, iv measured after 14 days; type: functional, organism-based; settings: time 14.0 day
[21] = Metabolic stability in Sprague-Dawley rat liver microsomes assessed as half life at 1 uM incubated upto 60 min in presence of NADPH by LC-MS/MS analysis; type: ADME, Microsome
Lung = assay: Antithrombotic activity in BALB/c mouse model of carrageenan-induced thrombus formation assessed as reduced thrombus formation in lung at 100 mg/kg, iv measured after 14 days by H and E staining based assay; type: functional, organism-based; settings: time 14.0 day
[22] = Metabolic stability in CD-1 mouse liver microsomes assessed as microsomal intrinsic clearance at 1 uM incubated upto 60 min in presence of NADPH by LC-MS/MS analysis; type: ADME, Microsome; settings: read-out: CLH
Mus musculus [23] = assay: Antiplatelet activity against ADP-induced C57BL/6J mouse platelet aggregation assessed as reduction in P-selectin surface levels at 100 mg/kg, po measured after 2 weeks by flow cytometry analysis; type: functional, organism-based
[24] = Acute toxicity in Kunming mouse assessed as effect on creatine at 250 to 1000 mg/kg, po measured after 14 days; type: organism-based; settings: in vivo, 336 h, dose 250-1000 mg/kg, time 14 day
Platelet [25] = assay: Antiplatelet activity against ADP-induced C57BL/6J mouse platelet aggregation assessed as reduction on platelet aggregation at 2.5 to 10 uM preincubated for 10 mins followed by ADP addition; type: functional, cell-based; settings: dose 2.5-10 µM, DDE = dose-dependent effect
[26] = Metabolic stability in Sprague-Dawley rat liver microsomes assessed as compound remaining at 1 uM measured after 60 mins in presence of NADPH by LC-MS/MS analysis; type: ADME, Microsome; settings: read-out: Stability
[27] = Acute toxicity in Kunming mouse assessed as effect on blood urea nitrogen at 250 to 1000 mg/kg, po measured after 14 days; type: organism-based; settings: in vivo, 336 h, dose 250-1000 mg/kg, time 14 day
[28] = Acute toxicity in Kunming mouse assessed as effect on glutamic pyruvic transaminase at 250 to 1000 mg/kg, po measured after 14 days; type: organism-based; settings: in vivo, 336 h, dose 250-1000 mg/kg, time 14 day
[29] = Metabolic stability in human liver microsomes assessed as microsomal intrinsic clearance at 1 uM incubated upto 60 min in presence of NADPH by LC-MS/MS analysis; type: ADME, Microsome; settings: read-out: CLH
Mus musculus [30] = assay: Antiplatelet activity against ADP-induced C57BL/6J mouse platelet aggregation assessed as reduction in integrin alphaIIbbeta3 surface level at 100 mg/kg, po measured after 2 weeks by flow cytometry analysis; type: functional, organism-based
Mus musculus [31] = assay: Antithrombotic activity in BALB/c mouse model of carrageenan-induced thrombus formation assessed as reduced thrombus area in tail at 100 mg/kg, iv measured after 14 days by H and E staining based assay; type: functional, organism-based; settings: time 14.0 day
Mus musculus [32] = assay: Antithrombotic activity in BALB/c mouse model of carrageenan-induced thrombus formation assessed as reduced serum P-selectin level at 100 mg/kg, iv measured after 14 days by ELISA; type: functional, organism-based; settings: time 14.0 day
[33] = Binding affinity to sensorchip-immobilized PI3K (unknown origin) by surface plasmon resonance analysis; design: species or system Homo sapiens
Mus musculus [34] = assay: Antiplatelet activity against ADP-induced C57BL/6J mouse platelet aggregation assessed as inhibition of platelet aggregation at 100 mg/kg, po measured after 2 weeks; type: functional, organism-based

For `CCCOc1c(OC)ccc2cc3[n+](cc12)CCc1cc(OC)c(OC)cc1-3.[Br-]`, the inhibition (Platelet [1]) was “Active”, the LD50 at 336 h [2] was 1000 mg/kg and the CLH [3] was < 17.3 mL/min/kg. The Activity (Platelet [4]) was “Active”, the Activity [5] was “Non-Toxic” and the inhibition (Platelet [6]) was “Dde”. The Activity (Platelet [7]) was “Active”, the half-life at 1 µM [8] was > 2.42 h and the remaining at 1 h, 1 µM [9] was 39%. The “%max” value [10] was 26.9%, the CLH [11] was 123 mL/min/kg and the CLH [12] was < 8.6 mL/min/kg. The microsomal CLint at 1 µM [13] was < 9.6 µL/min/mg, the remaining at 1 h, 1 µM [14] was 117% and the half-life at 1 µM [15] was 0.745 h. For the same molecule, the Activity (Platelet [16]) was “Active”, the viability at 100 µM [17] was 90% and the Activity [18] was 37.8%. For the same molecule, the inhibition (Platelet [19]) was “Active”, the inhibition (Mus musculus [20]) was “Active” and the half-life at 1 µM [21] was > 2.42 h. The Activity (Lung) was “Active”, the microsomal CLint at 1 µM [22] was 31 µL/min/mg and the Activity (Mus musculus [23]) was “Active”. For the same molecule, the Activity [24] was “Non-Toxic”, the Activity (Platelet [25]) was “Dde” and the remaining at 1 h, 1 µM [26] was 79%. The Activity [27] was “Non-Toxic”, the Activity [28] was “Non-Toxic” and the microsomal CLint at 1 µM [29] was < 9.6 µL/min/mg. For the same molecule, the Activity (Mus musculus [30]) was “Active”, the inhibition (Mus musculus [31]) was “Active” and the Activity (Mus musculus [32]) was “Active”. For the same molecule, the Kd [33] was 25.5 µM and the Activity (Mus musculus [34]) was “Active”.
